Results reported in ChEMBL document CHEMBL1201862, “PubChem BioAssay data set” (2004).
Active and inactive are the calls of the source.

Experiments:
Cytochrome P450 3A4 = Cytochrome P450 3A4 (Homo sapiens, UniProt P08684);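 note: CYP3A4 tested as one member of a cytochrome P450 panel screen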
[1] = target: T1, RNA-binding protein pos-1 (Caenorhabditis elegans, UniProt G5EF15); test: disruptors of C. elegans POS-1 RNA interaction – biochemical, fluorescence polarization, dose response (AID 1964);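 note: purified POS-1 fused to maltose binding protein made in E. coli; potency of compounds blocking POS-1 binding to fluorescent RNA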
T1 sequence (G5EF15 whole entry): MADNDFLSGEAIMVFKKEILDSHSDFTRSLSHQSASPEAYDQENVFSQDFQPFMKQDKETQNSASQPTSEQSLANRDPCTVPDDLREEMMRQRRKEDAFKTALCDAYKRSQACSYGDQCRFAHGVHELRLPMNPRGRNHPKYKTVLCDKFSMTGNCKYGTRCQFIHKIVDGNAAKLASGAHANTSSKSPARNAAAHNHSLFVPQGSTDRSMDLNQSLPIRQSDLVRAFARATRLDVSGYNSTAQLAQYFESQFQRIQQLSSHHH

[2] = target: T2, Zinc finger protein mex-5 (Caenorhabditis elegans, UniProt Q9XUB2); test: potency of MEX-5 RNA-binding blockers – biochemical, C. elegans, fluorescence polarization, dose response (AID 1960)
T2 sequence (Q9XUB2 whole entry): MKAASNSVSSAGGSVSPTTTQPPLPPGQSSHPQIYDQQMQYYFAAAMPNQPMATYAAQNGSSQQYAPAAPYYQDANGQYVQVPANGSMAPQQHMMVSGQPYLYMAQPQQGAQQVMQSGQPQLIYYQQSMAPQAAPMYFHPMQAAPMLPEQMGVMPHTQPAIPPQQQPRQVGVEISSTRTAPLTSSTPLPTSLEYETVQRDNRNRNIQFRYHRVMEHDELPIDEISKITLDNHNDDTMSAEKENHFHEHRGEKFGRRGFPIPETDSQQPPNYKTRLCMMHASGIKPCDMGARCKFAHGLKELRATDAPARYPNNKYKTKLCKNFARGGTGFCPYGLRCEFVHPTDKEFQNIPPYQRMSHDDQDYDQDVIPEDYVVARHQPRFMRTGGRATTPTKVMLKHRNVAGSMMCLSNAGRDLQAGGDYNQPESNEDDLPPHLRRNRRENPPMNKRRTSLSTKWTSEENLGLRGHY

Cytochrome P450 2C9 = Cytochrome P450 2C9 (Homo sapiens, UniProt P11712)
Chain of Cytochrome P450 2C9 (P11712 whole entry): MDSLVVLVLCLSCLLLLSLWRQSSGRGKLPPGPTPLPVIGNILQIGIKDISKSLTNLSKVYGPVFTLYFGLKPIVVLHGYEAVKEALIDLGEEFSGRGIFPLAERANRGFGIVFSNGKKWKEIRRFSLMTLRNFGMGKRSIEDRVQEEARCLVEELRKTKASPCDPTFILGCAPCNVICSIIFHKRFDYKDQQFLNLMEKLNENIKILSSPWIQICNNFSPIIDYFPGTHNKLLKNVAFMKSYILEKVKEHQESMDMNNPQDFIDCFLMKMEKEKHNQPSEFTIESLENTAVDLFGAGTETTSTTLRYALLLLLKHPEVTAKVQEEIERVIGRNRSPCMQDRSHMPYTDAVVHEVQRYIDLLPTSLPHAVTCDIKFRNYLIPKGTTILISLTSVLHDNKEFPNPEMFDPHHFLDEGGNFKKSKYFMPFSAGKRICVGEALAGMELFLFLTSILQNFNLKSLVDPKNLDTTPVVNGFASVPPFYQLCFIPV

[3] = NIH-3T3 fibroblast cytotoxicity, dose response, cytotoxicity control, cell-based, fluorescence, Alamar Blue, secondary assay (AID 2327); assay type: functional;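 note: NIH-3T3 mouse fibroblasts cultured with fluconazole at 8 µg/mL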
[4] = fluconazole-exposed Candida albicans growth modulators – fluorescence, retest, confirmation (AID 2467); assay type: functional, cell-based
[5] = target: T3, Heat shock factor protein 1 (Mus musculus, UniProt P38532); test: enhancement of HSF1-driven luciferase signal – cell-based, NIH3T3, luminescence, dose retest, confirmation (AID 435004); assay type: functional;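 note: stress induced by proteasome inhibitor MG132 added 30 min after compound; luciferase reporter driven by HSF1 response element in NIH3T3 cells; actives raise luminescence as potentiators of the MG132 stress response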
T3 sequence (P38532 whole entry): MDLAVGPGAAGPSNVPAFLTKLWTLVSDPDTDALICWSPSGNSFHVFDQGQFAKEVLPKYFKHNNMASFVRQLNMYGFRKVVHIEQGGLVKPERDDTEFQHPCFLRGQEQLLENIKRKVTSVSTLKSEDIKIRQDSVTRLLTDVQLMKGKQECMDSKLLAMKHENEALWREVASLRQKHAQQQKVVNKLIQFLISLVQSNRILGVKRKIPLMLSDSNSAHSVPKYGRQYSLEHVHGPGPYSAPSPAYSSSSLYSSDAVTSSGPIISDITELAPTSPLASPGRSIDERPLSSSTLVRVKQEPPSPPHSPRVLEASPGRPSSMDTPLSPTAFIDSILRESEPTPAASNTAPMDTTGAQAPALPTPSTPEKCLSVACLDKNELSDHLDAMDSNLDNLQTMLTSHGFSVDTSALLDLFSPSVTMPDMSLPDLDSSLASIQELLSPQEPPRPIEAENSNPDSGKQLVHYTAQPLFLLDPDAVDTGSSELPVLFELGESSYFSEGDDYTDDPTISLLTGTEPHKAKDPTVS

[6] = Trypanosoma cruzi growth suppression in host cells – NIH3T3 host cells, beta-gal luminescence, confirmation (AID 2044); assay type: functional, cell-based;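 note: intracellular parasites grown in NIH/3T3 mouse fibroblasts as host cells; luminescent beta-galactosidase reporter signal from transgenic T. cruzi replicating inside host cells; inhibitors lower the luminescence signal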
[7] = NIH3T3 cell viability loss – ATP luminescence, mouse fibroblasts, counter-screen, dose response (AID 2010); assay type: functional, cell-based;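 note: cells exposed to compound for about 90 hours before reading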
Cytochrome P450 2C19 = Cytochrome P450 2C19 (Homo sapiens, UniProt P33261); test: Cytochrome panel assay with activity outcomes. Panel member name: p450-cyp2c19 Compounds with AC50 equal or less than 10 uM are considered active; assay type: functional; details: read-out: AC50
Chain of Cytochrome P450 2C19 (P33261 whole entry): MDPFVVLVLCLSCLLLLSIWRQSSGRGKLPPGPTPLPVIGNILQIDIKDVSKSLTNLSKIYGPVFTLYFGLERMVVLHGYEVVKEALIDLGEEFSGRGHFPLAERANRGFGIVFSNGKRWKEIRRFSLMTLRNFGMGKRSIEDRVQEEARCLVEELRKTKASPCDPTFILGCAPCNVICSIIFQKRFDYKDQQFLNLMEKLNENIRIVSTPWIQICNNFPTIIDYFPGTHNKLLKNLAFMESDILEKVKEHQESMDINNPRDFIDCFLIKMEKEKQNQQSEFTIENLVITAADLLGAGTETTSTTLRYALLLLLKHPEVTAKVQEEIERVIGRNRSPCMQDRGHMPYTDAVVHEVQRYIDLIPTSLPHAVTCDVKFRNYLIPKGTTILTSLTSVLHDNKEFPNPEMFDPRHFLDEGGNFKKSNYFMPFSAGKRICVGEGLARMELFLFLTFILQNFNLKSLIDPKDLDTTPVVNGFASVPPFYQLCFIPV

[8] = luciferase reporter signal suppression in cells – H4 neuroglioma cells, luminescence, dose response (AID 1990); assay type: functional, cell-based
[9] = Luminescence Cell-Based Dose Response HTS to Identify Inhibitors of 5'UTR Stem-Loop Driven Prion Protein mRNA Translation in H4 Neuroglioblastoma Cells. [Related pubchem assays: 1827 (Project Summary), 1813 (Primary HTS)]; assay type: functional
[10] = alpha-synuclein stem-loop luciferase translation blockers – H4 neuroglioma cells, luminescence, confirmation (AID 1988); assay type: functional, cell-based

Chain of Cytochrome P450 3A4 (P08684 whole entry, the tested form may be a part): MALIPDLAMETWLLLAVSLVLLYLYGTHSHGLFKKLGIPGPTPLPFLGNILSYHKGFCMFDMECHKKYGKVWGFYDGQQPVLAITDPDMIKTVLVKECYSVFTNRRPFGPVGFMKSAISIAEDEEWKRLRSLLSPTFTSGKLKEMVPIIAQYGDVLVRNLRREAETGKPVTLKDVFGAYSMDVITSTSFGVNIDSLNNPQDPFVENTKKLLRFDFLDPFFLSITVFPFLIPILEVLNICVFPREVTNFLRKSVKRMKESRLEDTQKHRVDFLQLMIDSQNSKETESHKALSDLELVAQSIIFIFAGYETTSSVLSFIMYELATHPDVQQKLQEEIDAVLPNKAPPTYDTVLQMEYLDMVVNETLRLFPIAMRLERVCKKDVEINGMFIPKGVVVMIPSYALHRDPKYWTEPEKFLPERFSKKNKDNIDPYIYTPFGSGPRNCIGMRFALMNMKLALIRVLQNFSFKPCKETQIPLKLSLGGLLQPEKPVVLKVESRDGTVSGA

In the case of `Cc1ccc(OCCCC(=O)NCc2ccco2)cc1`, the AC50 (Cytochrome P450 3A4) is reported as 17.8 µM (inconclusive).
For `Cc1cc2c3c(c1)C1(C(=O)N3C(C)(C)CC2C)C(C#N)=C(N)OC2=C1C(=O)CC(C)(C)C2` (stereo not drawn), the EC50 [1] was > 300 µM (not active) and the EC50 [2] was > 300 µM (not active).
In the case of `O=c1c(-c2cccs2)nc2cnc(N3CCOCC3)nc2n1CCc1ccccc1`, the AC50 (Cytochrome P450 3A4) is reported as 12.6 µM (inconclusive).
For `Cc1ccc(CS(=O)(=O)CCC(=O)NCCCOC(C)C)cc1`, the AC50 (Cytochrome P450 3A4) was 35.5 µM (inconclusive).
With `COc1cccc(Nc2ncc3nc(C)c(=O)n(CCc4ccccc4)c3n2)c1` the AC50 (Cytochrome P450 2C9) was 3.16 µM (inconclusive).
With `CN1C[C@H](CO)C=C2c3cccc4[nH]cc(c34)C[C@@H]21` the AC50 (Cytochrome P450 3A4) was 12.6 µM (inconclusive).
In the case of `CC1CCCN(C(=O)c2cccc(S(=O)(=O)Nc3cc(C(F)(F)F)ccc3Cl)c2)C1` (stereo not drawn), the EC50 [3] is reported as > 150 µM (inactive) and the EC50 [4] is reported as > 38 µM (not active).
With `C1CNCCOCCNCCN1` the AC50 (Cytochrome P450 2C9) was 17.8 µM (inconclusive).
With `Clc1ccc(CNC2CCN(Cc3ccccc3)CC2)cc1` the EC50 [5] was > 260 µM (inactive).
With `CSCC(C)N1CCC(n2nccc2NC(=O)CCCc2ccccc2)CC1` (stereo not drawn) the EC50 [1] was 6.99 µM (active) and the EC50 [2] was 8.67 µM (active).
For `CCOC(=O)c1sc(Nc2nc3c(OC)cccc3s2)nc1C`, the EC50 [3] was 48.9 µM (active) and the EC50 [4] was 2.8 µM (active).
For `COc1ccc(NC(=O)c2cccs2)c([N+](=O)[O-])c1`, the AC50 (Cytochrome P450 2C9) was 7.94 µM (inconclusive).
In the case of `CCOc1cc(N2CCOCC2)c(OCC)cc1NC(=O)Cc1cccc2ccccc12`, the EC50 [5] is reported as > 260 µM (inactive).
In the case of `Nc1ccc(S(=O)(=O)NNC(=O)C(=O)NNc2ccccc2)cc1`, the EC50 [3] is reported as 1.48 µM (active), the EC50 [4] is reported as > 38 µM (not active) and the EC50 [6] is reported as 0.75 µM (active). For the same molecule, the EC50 [7] was 1.96 µM (active).
With `CC(C)=NO[C@@H](C)c1cc(-c2c(C)cc(C)cc2C)no1` the AC50 (Cytochrome P450 2C19) was 0.631 µM (inconclusive) and the AC50 (Cytochrome P450 3A4) was 3.16 µM (inconclusive).
With `NS(=O)(=O)c1cc(C(=O)O)c(O)c2ccccc12` the AC50 (Cytochrome P450 2C9) was 3.98 µM (inconclusive).
With `CC(C)NC(=O)N1CCCC2(CCN(C(=O)c3cccn3C)CC2)C1` the AC50 (Cytochrome P450 3A4) was 25.1 µM (inconclusive).
For `CCOC(=O)c1c(C)[nH]c(C)c1S(=O)(=O)N1CCN(c2cccc(C)c2)C(C)C1` (stereo not drawn), the EC50 [5] was > 260 µM (inactive).
In the case of `COc1cccc(CN2C(=O)C3(C(C#N)=C(N)OC4=C3C(=O)CCC4)c3ccccc32)c1` (stereo not drawn), the EC50 [3] is reported as > 160 µM (inconclusive), the EC50 [8] is reported as 19.2 µM (active) and the EC50 [1] is reported as > 300 µM (not active). The EC50 [9] was > 120 µM (not active), the EC50 [2] was > 300 µM (not active) and the EC50 [10] was 20.1 µM (active). The EC50 [4] was 1.24 µM (active).
In the case of `O=C(NNC(=O)c1cnccn1)c1cccc([N+](=O)[O-])c1`, the EC50 [1] is reported as 22.1 µM (active) and the EC50 [2] is reported as 1.03 µM (active).
For `Cc1cc(C)nc(NC(=O)c2cccc([N+](=O)[O-])c2C)n1`, the AC50 (Cytochrome P450 2C9) was 11.2 µM (inconclusive).
For `CC(C)(C)c1nn(-c2ccccc2)c2[nH]c(=O)c(CNCc3ccco3)cc12`, the EC50 [1] was > 300 µM (not active) and the EC50 [2] was > 300 µM (not active).
With `COc1ccc(NS(=O)(=O)c2cc(NC(=O)c3cnccn3)ccc2N2CCCC2)cc1` the EC50 [5] was > 260 µM (inactive).
With `CCCc1cc(=O)oc2cc(C)c(CN3CCCC3)c(O)c12` the EC50 [5] was > 260 µM (inactive).
In the case of `C=CCN1C(=O)S/C(=C\c2ccc(N3CCOCC3)cc2C)C1=O`, the EC50 [1] is reported as 40.8 µM (active) and the EC50 [2] is reported as 61.3 µM (inconclusive).
In the case of `O=S(=O)(Nc1cccc2ccccc12)c1cccc2nonc12`, the EC50 [5] is reported as > 260 µM (inactive).
With `O=C(CCC(=O)Nc1ccccc1Cl)NNS(=O)(=O)c1ccc(Cl)cc1` the EC50 [3] was > 160 µM (inactive) and the EC50 [4] was > 38 µM (not active).
With `CC(C)C(C(=O)NCc1ccccc1)N(CC1CCCO1)C(=O)CNS(=O)(=O)c1ccccc1` (stereo not drawn) the EC50 [5] was > 260 µM (inactive).
For `CC(=O)Nc1ccc(S(=O)(=O)NCc2nc(-c3cccc(C)c3)no2)cc1`, the EC50 [1] was 85.6 µM (active) and the EC50 [2] was > 300 µM (not active).
In the case of `CCCOc1cccc(C(=O)Nc2cccnc2)c1`, the EC50 [3] is reported as > 150 µM (inactive) and the EC50 [4] is reported as > 38 µM (not active).
In the case of `Cc1cc(C(F)(F)F)n2nc(-c3cnn(C)c3C(F)(F)F)cc2n1`, the AC50 (Cytochrome P450 3A4) is reported as 17.8 µM (inconclusive) and the AC50 (Cytochrome P450 2C9) is reported as 7.08 µM (inconclusive).
With `O=C(Nc1ccc(Br)cn1)c1ccc2nccnc2c1` the EC50 [1] was > 300 µM (not active) and the EC50 [2] was > 300 µM (not active).
In the case of `COc1ccc2c(c1)CCN=C2Cc1ccc(OC)c(OC)c1`, the EC50 [3] is reported as 66.8 µM (active), the EC50 [8] is reported as > 120 µM (not active) and the EC50 [9] is reported as > 120 µM (not active). For the same molecule, the EC50 [10] was > 120 µM (not active) and the EC50 [4] was > 38 µM (not active).
In the case of `N#CCCn1c(=O)c(-c2cccs2)nc2cnc(Oc3cccc(Cl)c3)nc21`, the AC50 (Cytochrome P450 3A4) is reported as 7.94 µM (inconclusive) and the AC50 (Cytochrome P450 2C9) is reported as 6.31 µM (inconclusive).
For `Cc1c(Cl)cccc1N1C(=O)NC(=O)/C(=C\c2cc(C)n(-c3cccc(C(=O)O)c3C)c2C)C1=O`, the EC50 [1] was > 300 µM (not active) and the EC50 [2] was > 300 µM (not active).
For `O=S(=O)(c1ccc(-n2cnnn2)cc1)N1CCNCC1`, the EC50 [5] was > 260 µM (inactive).
With `COCCNC(=O)C(c1ccc(C)cc1)N(C(=O)CCC(=O)Nc1ccccn1)c1ccccc1C` (stereo not drawn) the EC50 [5] was > 260 µM (inactive).
In the case of `C=CCNC(=O)CSc1nnc(C(CC)N(C)C)n1C1CCCCC1` (stereo not drawn), the EC50 [5] is reported as > 260 µM (inactive).
In the case of `Cc1cc(C)cc(N(C(=O)c2ccccn2)C(C(=O)NC2CCCCC2)c2cccs2)c1` (stereo not drawn), the AC50 (Cytochrome P450 2C19) is reported as 17.8 µM (inconclusive) and the AC50 (Cytochrome P450 2C9) is reported as 15.8 µM (inconclusive).
In the case of `COc1ccc(C2/C=C\CN(S(=O)(=O)/C=C/c3ccccc3)[C@H](Cc3ccccc3)C(=O)N2Cc2ccc(F)cc2)cc1` (stereo partly drawn), the EC50 [5] is reported as > 260 µM (inactive).
For `O=C(Cn1nnc2ccccc21)N/N=C\C=C\c1ccccc1`, the AC50 (Cytochrome P450 2C19) was 14.1 µM (inconclusive) and the AC50 (Cytochrome P450 2C9) was 12.6 µM (inconclusive).
With `CS(=O)(=O)c1ccc(-c2cc(Br)sc2-c2ccc(F)cc2)cc1` [DUP-697] the AC50 (Cytochrome P450 3A4) was 20 µM (inconclusive).
With `Nc1n[nH]c2nc3ccccc3nc12` [QUINOXALINE1] the AC50 (Cytochrome P450 3A4) was 0.126 µM (inconclusive).
